According to ChEMBL document CHEMBL3244165, “Improved synthesis and in vitro antiviral activities of 5-cyanouridine and 5-cyano-2'-deoxyuridine” (J Med Chem, 1977):

system: Vaccinia virus; test: Antiviral activity against Vaccinia virus infected in human skin fibroblasts assessed as inhibition of virus-induced cytopathogenicity; assay type: functional, Orthopoxvirus vaccinia

SMILES	ID50
N#Cc1cn([C@@H]2O[C@H](CO)[C@@H](O)[C@H]2O)c(=O)[nH]c1=O	>7 ×10⁻⁴ M
N#Cc1cn([C@H]2C[C@H](O)[C@@H](CO)O2)c(=O)[nH]c1=O	2.7 ×10⁻⁵ M
O=c1[nH]c(=O)n([C@H]2C[C@H](O)[C@@H](CO)O2)cc1Br [BROXURIDINE]	6.5 ×10⁻⁷ M
O=c1[nH]c(=O)n([C@H]2C[C@H](O)[C@@H](CO)O2)cc1Cl [CHLORODEOXYURIDINE]	1.5 ×10⁻⁶ M
O=c1[nH]c(=O)n([C@H]2C[C@H](O)[C@@H](CO)O2)cc1F [FLOXURIDINE]	4 ×10⁻⁷ M
O=c1[nH]c(=O)n([C@H]2C[C@H](O)[C@@H](CO)O2)cc1I [IDOXURIDINE]	1.1 ×10⁻⁶ M
O=c1[nH]c(=O)n([C@H]2C[C@H](O)[C@@H](CO)O2)cc1C(F)(F)F [TRIFLURIDINE]	1.3 ×10⁻⁶ M
Nc1ncnc2c1ncn2[C@@H]1O[C@H](CO)[C@@H](O)[C@@H]1O [VIDARABINE]	2.6 ×10⁻⁵ M
